Test results: ChEMBL document CHEMBL1121555, “Quantitative structure-selectivity relationships. Comparison of the inhibition of Escherichia coli and bovine liver dihydrofolate reductase by 5-(substituted-benzyl)-2,4-diaminopyrimidines” (J Med Chem, 1980)

Experiment: Compound was evaluated for the partition coefficients probably at the pH >> 7.2 at the aqueous phase 0.1 N NaOH
Details: 0.1 N NaOH (aqueous phase)

| logD | Compound |
| --- | --- |
| 1.58 | Nc1ncc(Cc2ccccc2)c(N)n1 |

Experiment: Compound was evaluated for the partition coefficients probably at the […] at the aqueous phase 0.1 N HCl
Type: physicochemical
Details: 0.1 N HCl (aqueous phase)

| Compound | logD |
| --- | --- |
| Cc1cccc(Cc2cnc(N)nc2N)c1 | -0.51 |
| Nc1ncc(Cc2cccc(F)c2)c(N)n1 | -0.8 |
| Nc1ncc(Cc2ccccc2)c(N)n1 | -1.03 |
| Nc1ncc(Cc2cccc(OCc3ccccc3)c2)c(N)n1 | 0.53 |

More lines, now with the values ahead:

| logD | Compound |
| --- | --- |
| -0.92 | COc1cccc(Cc2cnc(N)nc2N)c1 |
| -1.94 | CC(=O)Nc1ccc(Cc2cnc(N)nc2N)cc1 |
| -1.03 | Nc1ncc(Cc2ccc([N+](=O)[O-])cc2)c(N)n1 |
| -0.36 | Nc1ncc(Cc2cccc(Cl)c2)c(N)n1 |
